In one data set the target is T1, rh beta tryptase (Homo sapiens, UniProt Q15661).
T1 construct: purchased Promega
As to the kind of experiment: tryptase inhibition test (cleavage of N-p-tosyl-Gly-Pro-Lys-para-nitroaniline, p-nitroaniline measured at 405 nm). The conditions noted are these: Tris HCl buffer pH 7.4 with calcium and heparin, 37° C., substrate 0.6 mM, 5 minutes pre-incubation, 5 minutes incubation. The class given is biochemical. The method, then:
The compounds according to the invention are characterised by their tryptase-inhibiting activity. This ability to inhibit tryptase was investigated using the test described below.
The measurement is carried out in Tris HCl buffer (100 mM), which additionally contains calcium (5 mM) and heparin ([…]), at pH 7.4. The standard used is rh beta tryptase which may be obtained commercially from Promega, for example. The substrate used is N-p-tosyl-Gly-Pro-Lys-para-nitroaniline in a concentration of 0.6 mM. The substrate is digested with tryptase to form p-nitroaniline which can be measured at 405 nm. Usually, an incubation period of 5 minutes and an incubation temperature of 37° C. are chosen. The enzyme activity used is 0.91 U/ml. The measurements are carried out in an Autoanalyser (Cobas Bio) made by Hofmann LaRoche. The potential inhibitory substances are used in concentrations of 10 μM in the screening, the inhibition of the tryptase being given in percent. The IC50 is determined at over 70% inhibition (concentration at which 50% of the enzyme activity is inhibited). After 5 minutes pre-incubation of the potential inhibitory substances, the substrate is added to start the reaction, the formation of p-nitroaniline being taken as a measurement of the enzyme activity after 5 minutes, after testing the linearity.
The data obtained after carrying out the tests described above (IC50 values) can be found in Table 2.

The structures appear in SMILES notation. Counter-ions that a name gives are not always drawn.

T1 sequence (Q15661 31-275): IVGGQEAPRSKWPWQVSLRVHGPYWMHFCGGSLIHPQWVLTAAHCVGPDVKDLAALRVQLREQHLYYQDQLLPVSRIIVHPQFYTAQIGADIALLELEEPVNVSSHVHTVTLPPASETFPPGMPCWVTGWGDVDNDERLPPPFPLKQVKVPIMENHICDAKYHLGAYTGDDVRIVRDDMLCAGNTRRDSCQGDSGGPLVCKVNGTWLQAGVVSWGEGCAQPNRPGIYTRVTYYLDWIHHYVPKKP

As to `CCN(CC)CCN(c1ccc2c(c1)nc(CCc1ccc(C(=N)N)cc1)n2C)S(=O)(=O)c1ccc(C(=O)O)cc1` (as salt: fumarate) [Example 14, N-{2-[2-(4-amidinophenyl)-ethyl]-1-methyl-benzimidazol-5-yl}-N-diethylaminoethyl-[4-carboxy-benzenesulphonamide]-fumarate], the melting point was 200 to 204 °C.

Consider `CCN(CC)CCN(c1ccc2c(c1)nc(CCc1ccc(C(=N)N)cc1)n2C)S(=O)(=O)c1ccc(N)cc1` (as salt: hydrochloride) [Example 8, N-{2-[2-(4-amidinophenyl)-ethyl]-1-methyl-benzimidazol-5-yl}-N-diethylaminoethyl-(4-amino-benzenesulphonamide)-tetrahydrochloride], for which the melting point is 190 to 205 °C.

`CCN(CC)CCN(c1ccc2c(c1)nc(CCc1ccc(C(=N)N)cc1)n2C)S(=O)(=O)c1ccc(OC)cc1` (as salt: hydrochloride) [Example 12, N-{2-[2-(4-amidinophenyl)-ethyl]-1-methyl-benzimidazol-5-yl}-N-diethylaminoethyl-(4-methoxy-benzenesulphonamide)-trihydrochloride] showed a melting point of 190 to 200 °C.

With `CCOC(=O)c1ccc(S(=O)(=O)N(CCN(CC)CC)c2ccc3c(c2)nc(CCc2ccc(C(=N)N)cc2)n3C)cc1` [Example 1, N-{2-[2-(4-amidinophenyl)-ethyl]-1-methyl-benzimidazol-5-yl}-N-diethylaminoethyl-(4-ethoxycarbonyl-benzenesulphonamide)-hydrochloride], at rh beta tryptase, the IC50 is 9.7 nM.

On to `CCN(CC)CCN(c1ccc2c(c1)nc(CCc1ccc(C(=N)N)cc1)n2C)S(=O)(=O)c1cccc(Br)c1` [Example 3, N-{2-[2-(4-amidinophenyl)-ethyl]-1-methyl-benzimidazol-5-yl}-N-diethylaminoethyl-(3-bromo-benzenesulphonamide)-hydrochloride], for which the IC50 on rh beta tryptase is 17 nM.

In the case of `CCN(CC)CCN(c1ccc2c(c1)nc(CCc1ccc(C(=N)N)cc1)n2C)S(=O)(=O)c1ccc([N+](=O)[O-])cc1` [Example 4, N-{2-[2-(4-amidinophenyl)-ethyl]-1-methyl-benzimidazol-5-yl}-N-diethylaminoethyl-(4-nitro-benzenesulphonamide)-hydrochloride], the IC50 at rh beta tryptase stood at 23 nM.

As to `CCN(CC)CCN(c1ccc2c(c1)nc(CCc1ccc(C(=N)N)cc1)n2C)S(=O)(=O)c1cccc(OC)c1` [Example 5, N-{2-[2-(4-amidinophenyl)-ethyl]-1-methyl-benzimidazol-5-yl}-N-diethylaminoethyl-(3-methoxy-benzenesulphonamide)-hydrochloride], on rh beta tryptase, the IC50 is 24 nM.

On to `CCN(CC)CCN(c1ccc2c(c1)nc(CCc1ccc(C(=N)N)cc1)n2C)S(=O)(=O)c1cccc(C)c1` [Example 6, N-{2-[2-(4-amidinophenyl)-ethyl]-1-methyl-benzimidazol-5-yl}-N-diethylaminoethyl-(3-methyl-benzenesulphonamide)-hydrochloride], for which the IC50 on rh beta tryptase amounted to 30 nM.

On to `CCN(CC)CCN(c1ccc2c(c1)nc(CCc1ccc(C(=N)N)cc1)n2C)S(=O)(=O)c1cccc(Cl)c1` [Example 7, N-{2-[2-(4-amidinophenyl)-ethyl]-1-methyl-benzimidazol-5-yl}-N-diethylaminoethyl-(3-chloro-benzenesulphonamide)-hydrochloride], for which the IC50 on rh beta tryptase was found to be 30 nM.

Regarding `CCN(CC)CCN(c1ccc2c(c1)nc(CCc1ccc(C(=N)N)cc1)n2C)S(=O)(=O)c1ccc(N)cc1` [Example 8, N-{2-[2-(4-amidinophenyl)-ethyl]-1-methyl-benzimidazol-5-yl}-N-diethylaminoethyl-(4-amino-benzenesulphonamide)-tetrahydrochloride], at rh beta tryptase, the IC50 worked out at 34 nM.

As to `CCN(CC)CCN(c1ccc2c(c1)nc(CCc1ccc(C(=N)N)cc1)n2C)S(=O)(=O)c1ccc(NC(C)=O)cc1` [Example 9, N-{2-[2-(4-amidinophenyl)-ethyl]-1-methyl-benzimidazol-5-yl}-N-diethylaminoethyl-(4-acetylamino-benzenesulphonamide)], at rh beta tryptase, the IC50 was 44 nM.

As for `CCN(CC)CCN(c1ccc2c(c1)nc(CCc1ccc(C(=N)N)cc1)n2C)S(=O)(=O)c1cc(C(F)(F)F)cc(C(F)(F)F)c1` [Example 16, N-{2-[2-(4-amidinophenyl)-ethyl]-1-methyl-benzimidazol-5-yl}-N-2-diethylaminoethyl-[3,5-di-(trifluoromethyl)-benzenesulphonamide] dihydrochloride], the IC50 on rh beta tryptase was determined as 25 nM.

As to `CCN(CC)CCN(c1ccc2c(c1)nc(CCc1ccc(C(=N)N)cc1)n2C)S(=O)(=O)c1ccc2cc(O)ccc2c1` [Example 17, N-{2-[2-(4-amidinophenyl)-ethyl]-1-methyl-benzimidazol-5-yl}-N-2-diethylaminoethyl-(6-hydroxy-naphth-2-ylsulphonamide) dihydrochloride], the half-maximal inhibitory concentration (IC50) on rh beta tryptase amounted to 280 nM.

As for `CCN(CC)CCN(c1ccc2c(c1)nc(CCc1ccc(C(=N)N)cc1)n2C)S(=O)(=O)c1cccc(C(F)(F)F)c1` [Example 18, N-{2-[2-(4-amidinophenyl)-ethyl]-1-methyl-benzimidazol-5-yl}-N-2-diethylaminoethyl-(3-trifluoromethyl-benzenesulphonamide) dihydrochloride], at rh beta tryptase, the IC50 was found to be 43 nM.

Consider `CCN(CC)CCN(c1ccc2c(c1)nc(CCc1ccc(C(=N)N)cc1)n2C)S(=O)(=O)c1cccc(C(C)(C)c2ccccc2)c1` [Example 19, N-{2-[2-(4-amidinophenyl)-ethyl]-1-methyl-benzimidazol-5-yl}-N-2-diethylaminoethyl-[3-(1-methyl-1-phenyl-ethyl)-benzenesulphonamide] dihydrochloride], for which the concentration for half-maximal inhibition (IC50) on rh beta tryptase was 8.8 nM.

As for `CN(C)c1cccc2c(S(=O)(=O)N(CCN)c3ccc4c(c3)nc(CCc3ccc(C(=N)N)cc3)n4C)cccc12` [Example 20, N-{2-[2-(4-amidinophenyl)-ethyl]-1-methyl-benzimidazol-5-yl}-N-aminoethyl-(dansylamide) dihydrochloride], the IC50 on rh beta tryptase amounted to 22 nM.

For `CCN(CC)CCN(c1ccc2c(c1)nc(CCc1ccc(C(=N)N)cc1)n2C)S(=O)(=O)c1ccc(C(C)(C)C)cc1` [Example 21, N-{2-[2-(4-amidinophenyl)-ethyl]-1-methyl-benzimidazol-5-yl}-N-diethylaminoethyl-(4-tert-butyl-benzenesulphonamide) dihydrochloride], the IC50 at rh beta tryptase was 4.1 nM.

Take `CN(C)c1cccc2c(S(=O)(=O)N(Cc3ccccn3)c3ccc4c(c3)nc(CCc3ccc(C(=N)N)cc3)n4C)cccc12` [Example 22, N-{2-[2-(4-amidinophenyl)-ethyl]-1-methyl-benzimidazol-5-yl}-N-pyrid-2-ylmethyl-(dansylamide) dihydrochloride]: on rh beta tryptase, the IC50 worked out at 14 nM.

For the compound `CN(C)c1cccc2c(S(=O)(=O)N(Cc3cccnc3)c3ccc4c(c3)nc(CCc3ccc(C(=N)N)cc3)n4C)cccc12` [Example 23, N-{2-[2-(4-amidinophenyl)-ethyl]-1-methyl-benzimidazol-5-yl}-N-pyrid-3-ylmethyl-(dansylamide) dihydrochloride], the IC50 at rh beta tryptase came out at 13 nM.

Take `CCN(CC)CCN(c1ccc2c(c1)nc(CCc1ccc(C(=N)N)cc1)n2C)S(=O)(=O)c1cccc2cccc(Cl)c12` [Example 24, N-{2-[2-(4-amidinophenyl)-ethyl]-1-methyl-benzimidazol-5-yl}-N-diethylaminoethyl-(8-chloronaphth-1-ylsulphonamide) dihydrochloride]: at rh beta tryptase, the IC50 was 13 nM.

`CN(C)c1cccc2c(S(=O)(=O)N(Cc3ccncc3)c3ccc4c(c3)nc(CCc3ccc(C(=N)N)cc3)n4C)cccc12` [Example 25, N-{2-[2-(4-amidinophenyl)-ethyl]-1-methyl-benzimidazol-5-yl}-N-pyrid-4-ylmethyl-(dansylamide) dihydrochloride]: the IC50 on rh beta tryptase turned out to be 36 nM.

Take `Cn1c(CCc2ccc(C(=N)N)cc2)nc2cc(N(Cc3ccccc3)S(=O)(=O)c3ccc(C(C)(C)C)cc3)ccc21` [Example 26, N-{2-[2-(4-amidinophenyl)-ethyl]-1-methyl-benzimidazol-5-yl}-N-benzyl-(4-tert-butyl-benzenesulphonamide) dihydrochloride]: the IC50 at rh beta tryptase came to 7.6 nM.

Take `CCN(CC)CCN(c1ccc2c(c1)nc(CCc1ccc(C(=N)N)cc1)n2C)S(=O)(=O)c1ccc2cc(OC)ccc2c1` [Example 27, N-{2-[2-(4-amidinophenyl)-ethyl]-1-methyl-benzimidazol-5-yl}-N-diethylaminoethyl-(6-methoxy-naphth-2-ylsulphonamide) diacetate]: the IC50 at rh beta tryptase is 17.3 nM.

For the compound `CCN(CC)CCN(c1ccc2c(c1)nc(CCc1ccc(C(=N)N)cc1)n2C)S(=O)(=O)c1cccc([N+](=O)[O-])c1` [Example 28, N-{2-[2-(4-amidinophenyl)-ethyl]-1-methyl-benzimidazol-5-yl}-N-2-diethylaminoethyl-(3-nitro-benzenesulphonamide) dihydrochloride], the IC50 on rh beta tryptase is 44 nM.

As for `CCN(CC)CCN(c1ccc2c(c1)nc(CCc1ccc(C(=N)N)cc1)n2C)S(=O)(=O)c1cccc(N)c1` [Example 29, N-{2-[2-(4-amidinophenyl)-ethyl]-1-methyl-benzimidazol-5-yl}-N-2-diethylaminoethyl-(3-amino-benzenesulphonamide) dihydrochloride], on rh beta tryptase, the IC50 was 52 nM.

The values are drawn from patent publication US6413990B1, “Arylsulphonamide-substituted benzimidazoles having tryptase-inhibiting activity” (Boehringer Ingelheim Pharma KG, priority 1999, dated 2002).
